Reference: PMC8414802, “Hair Cell Generation in Cochlear Culture Models Mediated by Novel γ-Secretase Inhibitors” (Frontiers in Cell and Developmental Biology, 2021)

How the values were obtained:
[1] = test system: Atoh1, Pou4f3, Myo7a expression in otic spheres; assay: Otic sphere assay, hair cell gene expression; format: cell-based, mouse
Experimental: The generation of otic spheres followed previously described protocols ([Oshima et al., 2009]) with modifications during differentiation phase to test GSIs. Briefly, OCs were dissociated and single cells were deposited in ultralow-cluster plates (Corning) and expanded in “full otic medium” consisting of DMEM/F12, supplemented with N2, B27 (Thermo Fisher), EGF (20 ng/ml; Chemicon), bFGF (10 ng/ml; Chemicon), IGF-1 (50 ng/ml; Chemicon), and heparan sulfate (50 ng/ml; Sigma-Aldrich). After culturing for 3–4 days at 37°C, spheres were collected, plated in cell culture-treated 96 well-plate and cultured in DMEM/F12, supplemented with N2, B27 with/without GSIs for 7 days after which they were lysed for RNA extraction.
Cells or tissue were lysed using RLT Lysis Buffer (Qiagen) and high purity RNA was prepared on the MagNA Pure instrument using MagNA Pure 96 Cellular RNA LV Kit (Roche). Reagents from Thermo Fisher were used for cDNA synthesis by reverse transcription using random hexamers. Resulting cDNA was RNAse H treated and amplified by TaqMan GEX mastermix and PCR primers and probes for human ATOH1 (Hs00944192_s1) and TBP (Hs00427620_m1), mouse Tbp (Mm00446971_m1), Atoh1 (Mm00476035_s1), Hes5 (Mm00439311_g1), Pouf4s (Mm04213795_s1), and Myo7a (Mm01274015_m1) on the Applied Biosystems QuantStudio 7 Flex Real-Time PCR System. Normalized to Tbp, relative gene expression fold-change was quantified and compared between experimental and control conditions by ΔΔCt calculation.
CPD3 and CPD8 were further compared for their potency to induce hair cell gene expression in otic sphere assays ([Oshima et al., 2009]). Cells were first expanded in presence of growth factors, and in a second step differentiated by growth factor removal and GSI treatment. […] This indicated a modest advantage of CPD3 in eliciting expression of the early hair cell marker Atoh1, but similar potency on expression of some later markers of HC differentiation, Pou4f3 and Myo7a (Figure 2A). From the results of two screening assays, CPD3 was selected for additional characterization studies based on its lower IC50 to induce Atoh1/ATOH1 expression in the otic spheres and LS174T cells, respectively.

[2] = test system: Pou4f3 positive hair cells in cochlear sensory epithelium from P2 rats; assay: Hair cell counts in rat organ of Corti explants; format: cell-based; settings: rat OC explants, 4 days, apex/middle/base
Experimental: OC explants were isolated from postnatal day 2 (P2) Wistar rats, P0-P2 mice (Lgr5-GFP or Atoh1-nGFP mice). Dissection of the cochlea under a stereomicroscope (Nikon SMZ800, Japan) allowed OC separation from stria vascularis and modiolus, and the sensory epithelium was plated with hair cells facing up on Cell-Tak (Corning, United States)-coated transwell-clear inserts (6-well format, 0.4 μm pore, Corning, United States). Dissection medium was exchanged for 1.5 ml full otic medium supplemented with 10% FBS (Invitrogen) and 0.01% Ampicillin (Sigma), added under the insert membrane, maintaining the OC under a thin film of medium during culture at 37°C. 5-ethyl-2′-deoxyuridine (EdU, 5 μM, Life Technologies) was added directly in the medium when indicated. […]
Dividing cells were labeled with, 5-ethyl-2′-deoxyuridine (EdU) and detected with Click-it Plus kit (Life Technologies). […]
Image processing was performed with the open-source image processing software FIJI, version 2.0 ([Schindelin et al., 2012]). Hair cells were quantified by counting Pou4f3 or Myo7a positive cells of the organ of Corti at three random microscopic fields for each cochlear region (base, middle, and apex) covering in total at least 1,200 μm. The number of hair cells (IHCs and OHCs) is expressed as unit per 100 μm. […]

COc1ccc2c(c1)N1CCC(C)(C)C1=CC(=O)[C@H]2NC(=O)[C@H](C)NC(=O)CCC(F)(F)F [CPD3]
IC50 ([1]; Mus musculus, 168 h, 7 days differentiation with GSI, read-out: IC50 for Atoh1 upregulation): 6.7 nM
Induction of Atoh1, Pou4f3 and Myo7a expression ([1]; dose-responsive, p < 0.05): significantly induced
Region of OHC induction [2]: limited to the apical region
